Columns and labels:
Assay in all cases: radiometric filter-binding kinase assay, Kinase HotSpot
Details in all cases: compound 0.5 µM; ATP 10 µM
CDK1 CCNB1 (human) = CDK1 CCNB1 (human) (UniProt P06493+P14635)
ZAP70 (human) = ZAP70 (human) (UniProt P43403)
PAK1 (human) = PAK1 (human) (UniProt Q13153)
WEE1 (human) = WEE1 (human) (UniProt P30291)
MST1R (human) = MST1R (human) (UniProt Q04912)
IKBKB (human) = IKBKB (human) (UniProt O14920)
BTK (human) = BTK (human) (UniProt Q06187)
CHEK1 (human) = CHEK1 (human) (UniProt O14757)
STK24 (human) = STK24 (human) (UniProt Q9Y6E0)
PIM3 (human) = PIM3 (human) (UniProt Q86V86)
HIPK1 (human) = HIPK1 (human) (UniProt Q86Z02)
EPHA7 (human) = EPHA7 (human) (UniProt Q15375)
RPS6KA5 KD2 (human) = RPS6KA5 KD2 (human) (UniProt O75582)
AKT1 (human) = AKT1 (human) (UniProt P31749)
CAMKK1 (human) = CAMKK1 (human) (UniProt Q8N5S9)
PTK6 (human) = PTK6 (human) (UniProt Q13882)
FGFR4 (human) = FGFR4 (human) (UniProt P22455)
OXSR1 (human) = OXSR1 (human) (UniProt O95747)
PRKD3 (human) = PRKD3 (human) (UniProt O94806)
CLK4 (human) = CLK4 (human) (UniProt Q9HAZ1)
MAPK1 (human) = MAPK1 (human) (UniProt P28482)
DSTYK (human) = DSTYK (human) (UniProt Q6XUX3)
ACVR1 (human) = ACVR1 (human) (UniProt Q04771)
NEK7 (human) = NEK7 (human) (UniProt Q8TDX7)
EPHA4 (human) = EPHA4 (human) (UniProt P54764)
ROS1 (human) = ROS1 (human) (UniProt P08922)
ROS1 (human), sequence (P08922 whole entry, looked up): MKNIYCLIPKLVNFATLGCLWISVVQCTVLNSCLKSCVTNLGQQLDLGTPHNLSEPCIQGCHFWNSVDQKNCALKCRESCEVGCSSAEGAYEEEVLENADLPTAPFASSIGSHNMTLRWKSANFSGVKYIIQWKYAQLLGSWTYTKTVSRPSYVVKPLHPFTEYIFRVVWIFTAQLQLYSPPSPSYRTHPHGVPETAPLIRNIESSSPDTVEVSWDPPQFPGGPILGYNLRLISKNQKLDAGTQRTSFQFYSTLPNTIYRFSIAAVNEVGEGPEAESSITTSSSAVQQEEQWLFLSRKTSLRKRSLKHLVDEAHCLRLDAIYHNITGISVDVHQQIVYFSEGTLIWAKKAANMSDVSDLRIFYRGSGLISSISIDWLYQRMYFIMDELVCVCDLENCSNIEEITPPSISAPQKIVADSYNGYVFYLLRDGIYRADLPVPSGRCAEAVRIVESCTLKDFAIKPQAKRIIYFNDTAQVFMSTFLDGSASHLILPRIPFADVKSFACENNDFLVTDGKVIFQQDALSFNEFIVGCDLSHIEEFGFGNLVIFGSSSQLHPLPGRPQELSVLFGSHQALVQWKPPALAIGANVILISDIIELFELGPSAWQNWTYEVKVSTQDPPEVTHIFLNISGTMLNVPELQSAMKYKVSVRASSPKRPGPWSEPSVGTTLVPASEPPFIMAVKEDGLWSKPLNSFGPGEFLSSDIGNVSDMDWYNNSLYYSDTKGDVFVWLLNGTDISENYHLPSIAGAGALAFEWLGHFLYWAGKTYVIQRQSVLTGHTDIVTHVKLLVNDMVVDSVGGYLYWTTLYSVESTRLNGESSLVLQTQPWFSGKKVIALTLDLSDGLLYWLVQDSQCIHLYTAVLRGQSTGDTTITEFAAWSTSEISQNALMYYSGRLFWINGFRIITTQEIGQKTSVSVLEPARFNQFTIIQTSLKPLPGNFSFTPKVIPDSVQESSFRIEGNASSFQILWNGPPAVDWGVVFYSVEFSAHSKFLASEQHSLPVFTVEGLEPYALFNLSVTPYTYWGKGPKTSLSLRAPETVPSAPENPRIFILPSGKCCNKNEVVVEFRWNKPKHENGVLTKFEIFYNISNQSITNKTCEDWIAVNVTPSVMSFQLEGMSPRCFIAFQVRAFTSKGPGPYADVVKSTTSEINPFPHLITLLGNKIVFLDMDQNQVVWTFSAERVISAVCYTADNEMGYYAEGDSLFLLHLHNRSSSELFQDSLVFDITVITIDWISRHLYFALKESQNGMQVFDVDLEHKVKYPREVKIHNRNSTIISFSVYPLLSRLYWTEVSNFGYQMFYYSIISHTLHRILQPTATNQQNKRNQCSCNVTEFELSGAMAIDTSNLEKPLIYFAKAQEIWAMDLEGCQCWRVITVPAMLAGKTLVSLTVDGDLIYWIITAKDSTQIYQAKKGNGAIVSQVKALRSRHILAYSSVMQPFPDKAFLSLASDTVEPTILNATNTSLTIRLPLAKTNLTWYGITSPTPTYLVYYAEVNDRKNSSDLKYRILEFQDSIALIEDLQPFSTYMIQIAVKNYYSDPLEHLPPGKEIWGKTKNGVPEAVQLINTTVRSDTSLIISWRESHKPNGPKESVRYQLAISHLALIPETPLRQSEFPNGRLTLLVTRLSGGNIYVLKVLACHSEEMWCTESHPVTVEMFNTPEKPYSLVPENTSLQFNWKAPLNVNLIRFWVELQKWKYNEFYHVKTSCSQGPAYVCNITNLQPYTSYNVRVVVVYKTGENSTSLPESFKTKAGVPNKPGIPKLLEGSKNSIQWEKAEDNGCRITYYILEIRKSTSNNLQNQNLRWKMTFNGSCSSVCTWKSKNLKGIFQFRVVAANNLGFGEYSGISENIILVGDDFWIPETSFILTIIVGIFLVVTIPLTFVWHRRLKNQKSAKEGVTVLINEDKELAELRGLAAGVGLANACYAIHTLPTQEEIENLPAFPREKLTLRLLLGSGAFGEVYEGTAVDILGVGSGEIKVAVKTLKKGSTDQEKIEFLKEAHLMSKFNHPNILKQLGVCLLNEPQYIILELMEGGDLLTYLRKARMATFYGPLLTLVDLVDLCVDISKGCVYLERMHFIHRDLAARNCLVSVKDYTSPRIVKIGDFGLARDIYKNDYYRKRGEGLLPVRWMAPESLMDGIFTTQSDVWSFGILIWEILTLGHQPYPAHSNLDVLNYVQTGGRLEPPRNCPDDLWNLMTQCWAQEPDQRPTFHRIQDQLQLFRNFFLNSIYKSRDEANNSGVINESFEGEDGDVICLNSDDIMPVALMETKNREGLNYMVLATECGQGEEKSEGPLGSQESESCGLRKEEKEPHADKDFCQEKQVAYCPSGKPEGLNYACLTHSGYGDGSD

MAP4K2 (human) = MAP4K2 (human) (UniProt Q12851)
CSNK2A1 (human) = CSNK2A1 (human) (UniProt P68400)
KDR (human) = KDR (human) (UniProt P35968)
JAK3 JH1 JH2 (human) = JAK3 JH1 JH2 (human) (UniProt P52333)
MAPKAPK2 (human) = MAPKAPK2 (human) (UniProt P49137)
TAOK3 (human) = TAOK3 (human) (UniProt Q9H2K8)
FGFR2 (human) = FGFR2 (human) (UniProt P21802)
HIPK4 (human) = HIPK4 (human) (UniProt Q8NE63)
HIPK4 (human), sequence (Q8NE63 whole entry, looked up): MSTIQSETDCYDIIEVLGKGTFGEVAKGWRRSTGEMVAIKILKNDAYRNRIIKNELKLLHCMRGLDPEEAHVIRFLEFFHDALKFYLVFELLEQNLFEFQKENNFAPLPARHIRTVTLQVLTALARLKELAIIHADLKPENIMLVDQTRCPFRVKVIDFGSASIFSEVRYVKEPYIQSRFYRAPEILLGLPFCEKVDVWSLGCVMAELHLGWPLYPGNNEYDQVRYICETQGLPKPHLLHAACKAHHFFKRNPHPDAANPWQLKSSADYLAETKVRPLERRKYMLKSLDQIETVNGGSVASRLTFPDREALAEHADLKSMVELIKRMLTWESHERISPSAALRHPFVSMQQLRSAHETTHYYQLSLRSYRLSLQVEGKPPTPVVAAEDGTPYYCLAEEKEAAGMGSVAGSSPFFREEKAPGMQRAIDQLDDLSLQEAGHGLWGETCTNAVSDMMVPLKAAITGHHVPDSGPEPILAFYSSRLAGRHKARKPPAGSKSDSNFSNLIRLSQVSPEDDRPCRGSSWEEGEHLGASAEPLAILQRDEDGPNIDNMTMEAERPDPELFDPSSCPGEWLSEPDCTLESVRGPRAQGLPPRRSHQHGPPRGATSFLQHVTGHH

TEK (human) = TEK (human) (UniProt Q02763)
ROCK2 (human) = ROCK2 (human) (UniProt O75116)
PDPK1 (human) = PDPK1 (human) (UniProt O15530)
TAOK2 (human) = TAOK2 (human) (UniProt Q9UL54)
ULK1 (human) = ULK1 (human) (UniProt O75385)
NEK4 (human) = NEK4 (human) (UniProt P51957)
STK3 (human) = STK3 (human) (UniProt Q13188)
MAP3K5 (human) = MAP3K5 (human) (UniProt Q99683)

MST1R (human), sequence (Q04912 whole entry, looked up): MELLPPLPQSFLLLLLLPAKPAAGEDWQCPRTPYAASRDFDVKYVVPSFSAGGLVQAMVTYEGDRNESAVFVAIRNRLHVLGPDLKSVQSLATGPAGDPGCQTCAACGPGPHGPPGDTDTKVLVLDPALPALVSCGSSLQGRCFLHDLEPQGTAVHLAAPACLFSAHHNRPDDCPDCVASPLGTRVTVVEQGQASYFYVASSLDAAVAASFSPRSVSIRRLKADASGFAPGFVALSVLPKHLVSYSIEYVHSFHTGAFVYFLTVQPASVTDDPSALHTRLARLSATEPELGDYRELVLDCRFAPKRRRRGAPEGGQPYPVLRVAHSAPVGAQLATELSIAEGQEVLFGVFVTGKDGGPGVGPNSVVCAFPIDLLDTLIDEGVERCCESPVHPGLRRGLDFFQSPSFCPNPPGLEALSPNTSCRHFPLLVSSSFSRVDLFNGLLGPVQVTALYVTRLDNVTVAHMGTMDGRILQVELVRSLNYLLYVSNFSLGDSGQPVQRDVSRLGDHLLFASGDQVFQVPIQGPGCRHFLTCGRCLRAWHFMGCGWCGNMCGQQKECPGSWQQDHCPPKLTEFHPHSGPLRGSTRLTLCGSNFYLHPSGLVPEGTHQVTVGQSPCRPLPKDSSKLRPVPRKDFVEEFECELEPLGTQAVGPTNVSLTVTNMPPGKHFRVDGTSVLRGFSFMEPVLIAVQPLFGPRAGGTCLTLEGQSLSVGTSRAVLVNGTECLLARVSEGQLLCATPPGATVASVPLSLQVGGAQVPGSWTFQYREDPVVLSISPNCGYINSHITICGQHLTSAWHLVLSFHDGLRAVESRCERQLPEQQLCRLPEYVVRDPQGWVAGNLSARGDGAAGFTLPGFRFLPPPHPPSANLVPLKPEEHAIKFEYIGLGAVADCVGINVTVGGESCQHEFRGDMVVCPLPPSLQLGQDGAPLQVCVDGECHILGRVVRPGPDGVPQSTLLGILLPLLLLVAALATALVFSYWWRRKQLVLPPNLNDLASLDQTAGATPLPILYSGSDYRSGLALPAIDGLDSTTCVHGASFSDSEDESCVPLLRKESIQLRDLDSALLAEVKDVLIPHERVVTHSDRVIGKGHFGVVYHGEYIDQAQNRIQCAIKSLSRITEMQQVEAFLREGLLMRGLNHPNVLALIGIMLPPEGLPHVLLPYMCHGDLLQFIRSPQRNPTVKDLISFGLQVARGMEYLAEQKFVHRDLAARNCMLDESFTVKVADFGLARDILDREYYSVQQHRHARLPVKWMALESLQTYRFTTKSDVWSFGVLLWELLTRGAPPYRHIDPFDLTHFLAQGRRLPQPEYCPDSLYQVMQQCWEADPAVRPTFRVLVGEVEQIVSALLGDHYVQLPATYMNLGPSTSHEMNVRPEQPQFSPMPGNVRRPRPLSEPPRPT
CDK1 CCNB1 (human), sequence (P06493 whole entry, looked up): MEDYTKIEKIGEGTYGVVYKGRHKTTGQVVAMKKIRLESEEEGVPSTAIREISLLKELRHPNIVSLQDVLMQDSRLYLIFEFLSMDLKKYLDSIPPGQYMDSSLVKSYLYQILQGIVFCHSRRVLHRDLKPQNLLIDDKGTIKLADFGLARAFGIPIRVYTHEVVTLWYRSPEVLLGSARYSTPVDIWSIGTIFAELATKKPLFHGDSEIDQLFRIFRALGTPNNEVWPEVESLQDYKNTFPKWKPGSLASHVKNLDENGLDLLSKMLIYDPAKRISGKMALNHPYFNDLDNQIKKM
CDK1 CCNB1 (human), sequence (P14635 whole entry, looked up): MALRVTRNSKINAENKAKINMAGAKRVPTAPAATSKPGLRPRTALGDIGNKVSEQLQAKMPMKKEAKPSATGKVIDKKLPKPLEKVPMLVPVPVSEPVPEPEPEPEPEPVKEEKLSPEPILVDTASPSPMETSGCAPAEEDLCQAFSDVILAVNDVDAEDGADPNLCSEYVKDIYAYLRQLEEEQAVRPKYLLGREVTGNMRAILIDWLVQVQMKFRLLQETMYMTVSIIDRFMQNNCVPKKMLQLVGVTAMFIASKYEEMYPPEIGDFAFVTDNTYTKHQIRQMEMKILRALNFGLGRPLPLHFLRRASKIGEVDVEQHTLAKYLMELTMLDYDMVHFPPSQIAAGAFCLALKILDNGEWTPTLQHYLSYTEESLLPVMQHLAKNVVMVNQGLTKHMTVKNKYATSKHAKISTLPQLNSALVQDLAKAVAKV

## O=C(Nc1ccc(Cl)cc1)c1ccccc1NCc1ccncc1
CDK1 CCNB1 (human)
  residual activity: 96.3%
ZAP70 (human)
  residual activity: 103%
PAK1 (human)
  residual activity: 94.9%
WEE1 (human)
  residual activity: 90.1%
MST1R (human)
  residual activity: 90.5%
IKBKB (human)
  residual activity: 99.3%
BTK (human)
  residual activity: 98.9%
CHEK1 (human)
  residual activity: 96.4%
STK24 (human)
  residual activity: 92.6%
PIM3 (human)
  residual activity: 93%
HIPK1 (human)
  residual activity: 92.7%
EPHA7 (human)
  residual activity: 95%
RPS6KA5 KD2 (human)
  residual activity: 92.5%
AKT1 (human)
  residual activity: 97.6%
CAMKK1 (human)
  residual activity: 98.5%
PTK6 (human)
  residual activity: 63.6%
FGFR4 (human)
  residual activity: 84.1%
OXSR1 (human)
  residual activity: 96.8%
PRKD3 (human)
  residual activity: 92.1%
CLK4 (human)
  residual activity: 107%
MAPK1 (human)
  residual activity: 94.7%
DSTYK (human)
  residual activity: 94.7%
ACVR1 (human)
  residual activity: 97.2%
NEK7 (human)
  residual activity: 103%
EPHA4 (human)
  residual activity: 96.5%
ROS1 (human)
  residual activity: 100%
MAP4K2 (human)
  residual activity: 97.3%
CSNK2A1 (human)
  residual activity: 91.1%
KDR (human)
  residual activity: 28.2%
JAK3 JH1 JH2 (human)
  residual activity: 87.8%
MAPKAPK2 (human)
  residual activity: 97.6%
TAOK3 (human)
  residual activity: 94.1%
FGFR2 (human)
  residual activity: 95.7%
HIPK4 (human)
  residual activity: 103%
TEK (human)
  residual activity: 92.4%
ROCK2 (human)
  residual activity: 93.8%
PDPK1 (human)
  residual activity: 95.3%
TAOK2 (human)
  residual activity: 102%
ULK1 (human)
  residual activity: 86.9%
NEK4 (human)
  residual activity: 85.8%
STK3 (human)
  residual activity: 94.2%

## Cc1cc2ncc(-c3ccccc3)nc2cc1C
CDK1 CCNB1 (human)
  residual activity: 108%
ZAP70 (human)
  residual activity: 96.7%
PAK1 (human)
  residual activity: 97.8%
WEE1 (human)
  residual activity: 105%
MST1R (human)
  residual activity: 99.4%
IKBKB (human)
  residual activity: 101%
BTK (human)
  residual activity: 94.8%
CHEK1 (human)
  residual activity: 94.2%
STK24 (human)
  residual activity: 94.5%
PIM3 (human)
  residual activity: 103%
HIPK1 (human)
  residual activity: 105%
EPHA7 (human)
  residual activity: 96.6%
RPS6KA5 KD2 (human)
  residual activity: 96.4%
AKT1 (human)
  residual activity: 101%
CAMKK1 (human)
  residual activity: 98%
PTK6 (human)
  residual activity: 93.6%
FGFR4 (human)
  residual activity: 77.2%
OXSR1 (human)
  residual activity: 85.6%
PRKD3 (human)
  residual activity: 92.2%
CLK4 (human)
  residual activity: 96%
MAPK1 (human)
  residual activity: 88%
DSTYK (human)
  residual activity: 95.5%
ACVR1 (human)
  residual activity: 91.8%
NEK7 (human)
  residual activity: 102%
EPHA4 (human)
  residual activity: 95.4%
ROS1 (human)
  residual activity: 100%
MAP4K2 (human)
  residual activity: 113%
CSNK2A1 (human)
  residual activity: 102%
MAP3K5 (human)
  residual activity: 107%
KDR (human)
  residual activity: 99.1%
JAK3 JH1 JH2 (human)
  residual activity: 101%
MAPKAPK2 (human)
  residual activity: 95.9%
TAOK3 (human)
  residual activity: 96.2%
FGFR2 (human)
  residual activity: 108%
HIPK4 (human)
  residual activity: 120%
TEK (human)
  residual activity: 99.7%
ROCK2 (human)
  residual activity: 88.1%
PDPK1 (human)
  residual activity: 103%
TAOK2 (human)
  residual activity: 105%
ULK1 (human)
  residual activity: 84.1%
NEK4 (human)
  residual activity: 99.3%
STK3 (human)
  residual activity: 98.9%
